Entries after “also recorded” stand apart in the source; their conditions may differ. Read-outs that look alike come from different tables or passages of the source.
Key:
[1] = test system: Acinetobacter baumannii ATCC 19606 type strain; experiment: CO-ADD antibacterial MIC assay; type: cell-based; details: initial CO-ADD dose-response screening; ≥80% growth inhibition
How it was run: (§1)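 Strains grown overnight in cation-adjusted Mueller Hinton broth at 37 °C, diluted 40-fold and regrown 1.5–3 h to mid-log, then seeded at 5 × 10^5 CFU/mL with compound. After 18 h static incubation at 37 °C, OD600 was read; MIC is the lowest concentration giving ≥80% growth inhibition.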

[2] = test system: Escherichia coli ATCC 25922 FDA control strain; experiment: CO-ADD antibacterial MIC assay; type: cell-based; details: initial CO-ADD dose-response screening; ≥80% growth inhibition
How it was run: as §1

[3] = test system: Pseudomonas aeruginosa ATCC 27853 QC control strain; experiment: CO-ADD antibacterial MIC assay; type: cell-based; details: initial CO-ADD dose-response screening; ≥80% growth inhibition
How it was run: as §1

[4] = test system: methicillin-resistant Staphylococcus aureus ATCC 43300; experiment: CO-ADD antibacterial MIC assay; type: cell-based; details: initial CO-ADD dose-response screening; ≥80% growth inhibition
How it was run: as §1

human red blood cells = type: cell-based
How it was run: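 Washed human erythrocytes at 0.5 × 10^8 cells/mL incubated with compound, then centrifuged. Haemolysis read as supernatant OD405, normalised to untreated cells (0%) and 1% Triton X-100 (100%), with melittin as internal plate control.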

C. albicans (ATCC 90028) [5] = experiment: Galleria mellonella infection (survival) assay; type: in vivo, Candida albicans in Galleria mellonella larvae; details: G. mellonella inoculated with C. albicans, 10 μL compound solution, 5 days, vs untreated control
Procedure: In an initial survival assay, G. mellonella larvae were inoculated with C. albicans (ATCC 90028). The larvae were then injected with 10 μL of the compound solution, and their survival was monitored for the next 5 days. Fluconazole and 10% DMSO injections were used as controls.
The globally available strains for C. albicans and C. neoformans, namely, ATCC 90028 and H99, respectively, were used to assess the antifungal potential of the panel of cobalt complex compounds in the G. mellonella insect model. Each strain was cultured on Sabouraud dextrose agar (SDA) for 24–48 h at 27 °C prior to inoculation. Yeast colonies were then suspended in a phosphate-buffered saline solution (PBS), and cells’ concentrations were adjusted using a Neubauer counting chamber to 5 × 10^7 cells for ATCC 90028 and 1 × 10^8 cells for H99. Compounds were prepared by dissolving in 100% dimethylsulfoxide (DMSO) to 4 or 10 mM depending on compound solubility before being further diluted with water to 0.4 or 1 mM for injection into larvae.
Each group of larvae was subsequently incubated at 37 °C for 2 h in 90 mm Petri dishes. After incubation, larvae were injected with 10 μL of the compound into the last right pro-leg and returned to Petri dishes to incubate at 37 °C for 5 days. In addition to the panel of metal compounds, fluconazole (FLC) was included as a positive control (1 and 0.4 mM) and reference antifungal. Larvae inoculated with just the fungal strains and the fungal strains with 10% DMSO were also included as comparison groups. Larvae injected concurrently with PBS instead of fungal inoculum and compounds were used as negative controls. All larvae were checked daily for survival.

C. albicans (ATCC 90028) [6] = experiment: Galleria mellonella infection (log CFU reduction) assay; type: in vivo, Candida albicans in Galleria mellonella larvae; details: 1 mM, 10 μL; Pt1 19 mg/kg, Pt2 28 mg/kg, fluconazole 12 mg/kg; 24 h at 37 °C; vs 10% DMSO control
Procedure: To quantify the possible protective effect of Pt1 and Pt2 in G. mellonella challenged with C. albicans, we conducted a CFU reduction assay with these compounds. Briefly, G. mellonella larvae were inoculated with C. albicans (ATCC 90028) and incubated for 2 h at 37 °C. The larvae were then injected with 10 μL of the corresponding compound solution (1 mM) or control (same concentration and injection volume) and incubated for 24 h at 37 °C. The larvae were then anesthetized, macerated, and serially diluted onto SDA (Sabouraud dextrose agar) plates. After 48 h of incubation, the CFUs were counted.
A log CFU reduction assay was conducted for two compounds and two control groups. […] Fluconazole (1 mM) and 10% DMSO were used once again as the control groups. Fifteen G. mellonella larvae (200–250 mg) per test group were selected and inoculated with 10 μL of C. albicans at a concentration of 5 × 10^7 cells/mL and incubated on 90 mm Petri dishes in groups of five larvae for 2 h at 37 °C. Larvae were then subsequently injected with 10 μL of the corresponding test compound or control and returned to Petri dishes to incubate for 24 h at 37 °C.
Larvae were then anesthetized on ice for 5 to 10 min before being placed in individual prefilled 2 mL tubes with 3.0 mm diameter zirconium beads with 1000 μL of PBS. They were then macerated briefly using the BeadBug 6 Homogenizer (Benchmark Scientific, USA) in two 45 s intervals at 4350 rpm. After homogenization, serial dilutions of 1:100, 1:1000, and 1:10,000 were then made for each larva/tube, and 100 μL of the dilution was spread plated onto SDA plates with 50 μg/mL chloramphenicol. Plates were then incubated at 27 °C for 48 h before CFUs were counted.
A one-way ANOVA was conducted to compare the CFU counts for Pt1, Pt2, and both controls. After a significant difference was observed between the groups, a subsequent Tukey’s pairwise test was used to compare the individual test groups with each other.

[7] = Stability by NMR / UV-vis; type: physicochemical; details: for stability in DMSO solution, NMR or UV–vis spectra: after 24 h; for stability of solid samples, NMR spectra: room temperature, protected from light, 2 years
Procedure: The ligands for these complexes (Ligand-Ag1 and Ligand-Ag2 in the SI) were originally studied for their solvatochromism and were later coordinated with silver to investigate their potential antimicrobial activity.[84] The carboxylate ion is able to coordinate to silver with monodentate, chelating, and/or bridging modes. […] The stability of complexes Ag1 and Ag2 was assessed.
One concern with Pt1 is its potential stability under biological conditions. […] Future work will be aimed toward more comprehensive examinations of the chemical and biological stability of these and related compounds, as well as investigations into their mode of action.

[8] = test system: Candida glabrata ATCC 90030 NCCLS 84; experiment: Antifungal MIC assay, extended panel; type: cell-based; details: extended panel; 50% inhibition, MIC score 2
[9] = test system: Candida tropicalis ATCC 750; experiment: Antifungal MIC assay, extended panel; type: cell-based; details: extended panel; 50% inhibition, MIC score 2
[10] = test system: Cryptococcus deuterogattii CBS7750 VGII; Serotype B; experiment: Antifungal MIC assay, extended panel; type: cell-based; details: extended panel; 50% inhibition, MIC score 2
[11] = test system: Cryptococcus deuterogattii ATCC 32609 VGII; experiment: Antifungal MIC assay, extended panel; type: cell-based; details: extended panel; 50% inhibition, MIC score 2
MRSA = test system: MRSA; design: method as in PMID 34018686; details: G. mellonella infected with MRSA; cited from earlier work
[12] = initial CO-ADD screening, 1 h, 10% hemolysis
[13] = ranges obtained upon retesting, new batch

SMILES	MIC Ab [1]	MIC Ec [2]	MIC Pa [3]	MIC MRSA (Sa) [4]	RBC HC10 (human red blood cells; [13])	stability in DMSO solution, NMR or UV–vis spectra [7]	stability of solid samples, NMR spectra [7]	MIC50 Candida glabrata ATCC 90030 [8]	MIC50 Candida tropicalis ATCC 750 [9]	MIC50 Cryptococcus deuterogattii CBS7750 [10]	MIC50 Cryptococcus deuterogattii ATCC 32609 [11]	RBC HC10 (human red blood cells; [12])	larva survival (C. albicans (ATCC 90028) [5])	reduction in CFUs (C. albicans (ATCC 90028) [6])	stability in DMSO, 1H NMR spectrum ([7]; 7 days at room temperature)	reduction in bacterial load (MRSA)	hemolysis: none up to stated concentration (human red blood cells; retest)
C1=CCCC=CCC1.[I][Pt][I] [Pt2]	>20 µM	>20 µM	>20 µM	0.625 µM	> 100 µM							>20 µM	significant larva survival; also recorded: showed some efficacy	CFUs comparable to the DMSO control			
CC(=NN=C(N)[S-])C(C)=NN=C(N)[S-].O=[N+]([O-])[O-].[Co+3].c1c[nH]cn1.c1c[nH]cn1 [Co1]	>32 µg/mL	>32 µg/mL	>32 µg/mL	>32 µg/mL	> 100 µM							>32 µg/mL					
C1=CCCC=CCC1.[Cl][Pt][Cl] [Pt1]	>20 µM	>20 µM	>20 µM	1.25 µM	> 100 µM							>20 µM	significant larva survival; also recorded: showed some efficacy	0.7 log10	no changes of the ^1H NMR spectrum	did not elicit a significant reduction in bacterial load	
COc1ccc(/C=C/C2=NN(c3ccc(C(=O)[O][Ag])cc3)C(c3ccc(OC)c(OC)c3)C2)cc1OC.COc1ccc(/C=C/C2=NN(c3ccc(C(=O)[O][Ag])cc3)C(c3ccc(OC)c(OC)c3)C2)cc1OC (racemic) [Ag1, (Ε)-1-(4-Carboxyphenyl)-5-(3,4-dimethoxyphenyl)-3-(3,4-dimethoxystyryl)-2-pyrazoline silver(I) complex]	>32 µg/mL	>32 µg/mL	>32 µg/mL	>32 µg/mL	13 to 154 µM	no changes	identical NMR spectra	≤ 0.006 µM	≤ 0.006 µM	≤ 0.006 µM	≤0.006 to 0.024 µM	>32 µg/mL					

Second part, led by results:

MIC Ab [1]	MIC Ec [2]	MIC Pa [3]	MIC MRSA (Sa) [4]	RBC HC10 (human red blood cells; [13])	stability in DMSO solution, NMR or UV–vis spectra [7]	stability of solid samples, NMR spectra [7]	MIC50 Candida glabrata ATCC 90030 [8]	MIC50 Candida tropicalis ATCC 750 [9]	MIC50 Cryptococcus deuterogattii CBS7750 [10]	MIC50 Cryptococcus deuterogattii ATCC 32609 [11]	SMILES	RBC HC10 (human red blood cells; [12])	larva survival (C. albicans (ATCC 90028) [5])	reduction in CFUs (C. albicans (ATCC 90028) [6])	stability in DMSO, 1H NMR spectrum ([7]; 7 days at room temperature)	reduction in bacterial load (MRSA)	hemolysis: none up to stated concentration (human red blood cells; retest)
>32 µg/mL	>32 µg/mL	>32 µg/mL	>32 µg/mL	> 200 µM	no changes	identical NMR spectra	0.006 to 0.195 µM	≤0.006 to 0.049 µM	≤0.006 to 0.049 µM	≤0.006 to 0.098 µM	O=C([O][Ag])c1ccc(N2N=C(/C=C/C=C/c3ccccc3)CC2/C=C/c2ccccc2)cc1.O=C([O][Ag])c1ccc(N2N=C(/C=C/C=C/c3ccccc3)CC2/C=C/c2ccccc2)cc1 (racemic) [Ag2, 1-(4-Carboxyphenyl)-3-{(1E,3E)-4-phenylbuta-1,3-dien-1-yl}-5-{(E)-styryl}-2-pyrazoline silver(I) complex]	>32 µg/mL					
>20 µM	>20 µM	>20 µM	>20 µM	> 100 µM							CC(C)C([O][Pt][Cl])C1=CCCC=CCC1 (centres unmarked) [Pt4]	>20 µM					
>20 µM	>20 µM	>20 µM	>20 µM	> 200 µM			0.012 to 0.049 µM	≤0.006 to 0.049 µM	0.024 to 0.098 µM	0.024 µM	Cc1ccc2ccc3ccc(C)nc3c2n1.Cc1ccc2ccc3ccc(C)nc3c2n1.O=C([O][Eu]([O]C(=O)c1ccccc1F)[O]C(=O)c1ccccc1F)c1ccccc1F [Eu1]	>20 µM					> 200 µM
